Assay results taken from patent US8921306B2 (The University of Queensland, priority 2010, dated 2014).

Tests used:
[1] = Serum stability in normal human serum; type: in vitro ADME; conditions: 37° C., LCMS, read-out: half-life (t1/2) in normal human serum
Description: Peptide stability was assessed in normal human serum (Sigma-Aldrich, NY, USA). The peptides were incubated with the serum in a water bath at 37° C. and aliquots were removed at specific time points. Serum proteins were precipitated after adding 3-fold excess acetonitrile, and proteins were precipitated by centrifugation at 17,000 rpm for 15 min. The supernatants were collected and analyzed by LCMS (4000 QTRAPR, Applied Biosystems) and all data normalized to the initial time point.

[2] = system: Human erythrocytes; assay: Haemolysis assay; type: cell-based; conditions: 37° C., 1 hour, absorbance at 544 nm
Description: Human erythrocytes were obtained from the Australian Red Cross Blood Service and diluted with PBS (pH 7.4) 1:50 to give a positive control reading of between 1.5-2.0 at 544 nm.
Equal amounts of cells were incubated with various concentrations of peptides and incubated at 37° C. for 1 hour. Cells were pelleted by centrifugation at 17,000 rpm for 5 minutes on a bench top centrifuge and the supernatant was collected. Haemolysis was assessed by reading the absorbance at 544 nm and normalized to 0% (PBS) and 100% (0.1% Triton-X100). This work was done with UQ ethics (200600011) and ARCBS (08-01QLD-07) approval.

[3] = target: T1, ORL-1 receptor (Mus musculus, UniProt P35377); assay: Agonist functional activity assessed by ERK phosphorylation (pERK) in Neuro-2a cells; type: cell-based
T1 construct: Neuro-2a cells were a gift from Professor John Mattick's laboratory; endogenous in cells; host or cells: Neuro-2a cells
Description: (§1) Neuro-2a cells were a gift from Professor John Mattick's laboratory (Institute of Molecular Bioscience, University of Queensland) and were cultured in Gibco® DMEM (Invitrogen, CA, USA) supplemented with 10% FBS (Invitrogen, CA, USA), GIBCO® Pen/Strep (50 units/mL penicillin and 50 μg/mL streptomycin, Invitrogen, CA, USA) and GIBCO® NEAA (1× concentration, Invitrogen, CA, USA). Cells were split 1:10 every 3 days.
(§2) All cells were incubated at 37° C. and 5% CO2. When treated with pertussis toxin (PTX, catalogue number P7208, Sigma-Aldrich, NY, USA), cells were incubated with 500 ng/mL for 15 hours before use. Cells treated with MEK inhibitor PD98059 (catalogue number PHZ1164, Invitrogen, CA, USA) were preincubated with 50 μM for 1 hour before use.
(§3) Cells were placed in 12-well plates (NUNC™, NY, USA) and allowed to adhere for 24-36 h. […]
(§4) Membranes were washed 3×10 minutes with TBE (with 0.1% Tween-20) and incubated with a primary antibody. […] Radiography was quantified using ImageJ (ImageI 1.36b, NIH).
(§5) pERK and total ERK concentrations were determined using a modified protocol for the AlphaScreen Surefire Assay. […] The ratio of pERK to total ERK was determined using equation 1 and normalized to control. […]
(§6) Concentration responses were analyzed using non-linear regression (variable slope) (Prism5, GraphPad Software) and data is presented as either EC50 (for agonists) or IC50 (antagonists). […]

[4] = circular dichroism; conditions: 10 mM phosphate; pH 7.4; 22 °C; 50-400 uM
[5] = Circular dichroism spectroscopy (helicity); type: physicochemical
Description: CD measurements were performed using a Jasco model J-710 spectropolarimeter which was routinely calibrated with (1S)-(+)-10-camphorsulfonic acid. A stock solution of 1-2 mg of peptide was dissolved in 1 mL of water. Separate 500 μL solutions of 50, 100, 200 and 400 μM were then prepared using an appropriate amount of stock solution and making up the different with 10 mM Phosphate Buffer (final pH 7.1). […] Jasco quartz cell over the wavelength range 260-185 nm at 100 nm/min. with a bandwidth of 1.0 nm, response time of 2 s, resolution step width of 1 nm and sensitivity of 20-50 Mdeg. Each spectrum represents the average of 5 scans. Spectra were analyzed using the spectral analysis software and smoothed using ‘adaptive smoothing’ function. Concentrations were determined using the PULCON method. [Wider, Dreier, 2006, J. Am. Chem. Soc. 128:2571-2576]
The incorporation of two lactam bridges induced appreciable helicity, monitored at 222 nm, and was calculated to range between 32-77% helicity. […] This is due to the fact that residues 1-6 (or 1-5 in 6) are not constrained and would not be expected to be in a helical conformation as they feature amino acids that have little or no propensity to adopt helices in proteins. To determine whether the exocyclic regions were the sole cause of low helicity, SEQ ID NO:15 without the N-terminal message was investigated further. This 12-residue peptide features eight residues (K, R, Q) known to favor α-helicity in proteins, and was 60% helical in phosphate buffer by CD spectral analysis. The serine residue is conserved within the sequence of many of these peptides and is known to be a helix breaker.

[6] = system: C57BL/6 mice; assay: Anti-nociceptive activity in mice, hot plate front paw withdrawal latency; type: in vivo; conditions: co-administered 200 pmol with SEQ ID NO:8 (200 pmol)
Description: Mice (C57BL/6; n=45) were brought into the experimental room for at least 30 minutes prior to testing. They were then individually placed on an accredited hot plate heated to 53±0.54° C. and timed until any front paw withdrawal, licking or jumping behaviour was recorded (baseline response). Mice were not left on the hot plate for longer than 30 sec. […] Mice were then individually placed on the hot plate again at time points 1, 5, 15, 30, 45 and 60 min post injection. Each test was video monitored.
In a parallel experiment, agonist of SEQ ID NO:8 was co-administered with the helical antagonist of SEQ ID NO:13, where upon the increased paw withdrawal latency produced by agonist of SEQ ID NO:8 alone was abolished. This confirms that the helix constrained peptide of SEQ ID NO:13 is a potent antagonist of SEQ ID NO:8 in vivo.

[7] = target: T1, ORL-1 receptor; assay: Antagonist functional activity assessed by ERK phosphorylation (pERK) in Neuro-2a cells challenged with 100 nM nociceptin(1-17)-NH2; type: cell-based
Description: as §1, §2, §3, §4, §5, §6

T1 sequence (P35377 whole entry): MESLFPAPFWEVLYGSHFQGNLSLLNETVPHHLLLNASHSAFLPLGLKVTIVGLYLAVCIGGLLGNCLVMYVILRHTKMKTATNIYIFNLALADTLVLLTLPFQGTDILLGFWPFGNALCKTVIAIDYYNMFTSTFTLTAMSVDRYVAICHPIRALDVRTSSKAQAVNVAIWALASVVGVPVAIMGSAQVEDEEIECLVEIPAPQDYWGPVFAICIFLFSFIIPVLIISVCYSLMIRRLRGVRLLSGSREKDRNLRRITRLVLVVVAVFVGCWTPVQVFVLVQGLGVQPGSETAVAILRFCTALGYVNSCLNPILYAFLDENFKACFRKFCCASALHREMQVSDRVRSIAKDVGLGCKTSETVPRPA

CC(C)C[C@H](NC(=O)[C@H](CCCCN)NC(=O)[C@H](CCCN=C(N)N)NC(=O)[C@H](C)NC(=O)[C@H](CO)NC(=O)[C@H](CCCCN)NC(=O)[C@H](CCCN=C(N)N)NC(=O)[C@H](C)NC(=O)CNC(=O)[C@@H](NC(=O)[C@H](Cc1ccccc1)NC(=O)CNC(=O)CNC(=O)[C@@H](N)Cc1ccccc1)[C@@H](C)O)C(=O)N[C@@H](C)C(=O)N[C@@H](CC(N)=O)C(=O)N[C@@H](CCC(N)=O)C(=O)O [SEQ ID NO:1, reference compound]
half-life [1]: ≤ 1 h
haemolytic activity [2]: Neither of the cyclic peptides tested (SEQ ID NOs:7 AND 8), nor the unconstrained nociceptin(1-17)-OH (SEQ ID NO:1) had any haemolytic activity

C[C@@H]1NC(=O)[C@@H](NC(=O)[C@H](CCCCN)NC(=O)[C@H](CCCN=C(N)N)NC(=O)[C@@H]2CC(=O)NCCCC[C@H](NC(=O)CNC(=O)[C@@H](NC(=O)[C@H](Cc3ccccc3)NC(=O)CNC(=O)CNC(=O)[C@@H](N)Cc3ccccc3)[C@@H](C)O)C(=O)N[C@@H](CCCN=C(N)N)C(=O)N[C@@H](CCCCN)C(=O)N[C@@H](CO)C(=O)N2)CCCCNC(=O)C[C@@H](C(N)=O)NC(=O)[C@H](CCC(N)=O)NC(=O)[C@H](CC(N)=O)NC1=O [SEQ ID NO:7, H-FGGFTG[KRKSD]RK[KANQD]-NH2]
half-life [1]: > 6 h
haemolytic activity [2]: Neither of the cyclic peptides tested (SEQ ID NOs:7 AND 8), nor the unconstrained nociceptin(1-17)-OH (SEQ ID NO:1) had any haemolytic activity

C[C@@H](O)[C@H](NC(=O)[C@H](Cc1ccc(F)cc1)NC(=O)CNC(=O)CNC(=O)[C@@H](N)Cc1ccccc1)C(=O)NCC(=O)N[C@H]1CCCCNC(=O)C[C@@H](C(=O)N[C@@H](CCCN=C(N)N)C(=O)N[C@@H](CCCCN)C(=O)N[C@H]2CCCCNC(=O)C[C@@H](C(N)=O)NC(=O)[C@H](CCC(N)=O)NC(=O)[C@H](CC(N)=O)NC(=O)[C@H](CCCCN)NC2=O)NC(=O)[C@H](CO)NC(=O)[C@H](CCCCN)NC(=O)[C@H](CCCN=C(N)N)NC1=O [SEQ ID NO:8, H-FGGF(4-F)TG[KRKSD]RK[KKNQD]-NH2]
half-life [1]: > 6 h
haemolytic activity [2]: Neither of the cyclic peptides tested (SEQ ID NOs:7 AND 8), nor the unconstrained nociceptin(1-17)-OH (SEQ ID NO:1) had any haemolytic activity

CC(C)C[C@H](NC(=O)[C@H](CCCCN)NC(=O)[C@H](CCCNC(=N)N)NC(=O)[C@H](C)NC(=O)[C@H](CO)NC(=O)[C@H](CCCCN)NC(=O)[C@H](CCCNC(=N)N)NC(=O)[C@H](C)NC(=O)CNC(=O)[C@@H](NC(=O)[C@H](Cc1ccccc1)NC(=O)CNC(=O)CNC(=O)[C@@H](N)Cc1ccccc1)[C@@H](C)O)C(=O)N[C@@H](C)C(=O)N[C@@H](CC(N)=O)C(=O)N[C@@H](CCC(N)=O)C(=O)O [compound 1]
Emax ([3]; N2a): 90 ± 7%
helicity [4]: 0.02 frac
fH (buffer) ([5]; 10 mM phosphate buffer (pH 7.4) at 22° C., fH calculated based on θ at 222 nm): 0.02
fH (TFE*) ([5]; buffer: TFE 50:50, 22° C.): 0.15

Ac-[KRKSD]RK[KKNQD]-NH2 (XRKSXRKXKNQX; N-acetyl, cyclic lactams, C-amide) [SEQ ID NO:15]
helicity ([5]; phosphate buffer, CD monitored at 222 nm): 60%

BzlGGGF(4-F)TG[KRKSD]RK[KKNQD]-NH2 (XGGXTGXRKSXRKXKNQX; N-benzyl, 4-F-Phe, cyclic lactams, C-amide) [SEQ ID NO:13]
effect on increased paw withdrawal latency produced by agonist SEQ ID NO:8 [6]: abolished
improvement in antagonist activity (fold) ([7]; constrained relative to unconstrained analogue): over four-fold
agonist activity at single point concentration ([3]; 1 μM): neither showed significant agonist activity

BzlGlyGGFT[KARKD][KRKLD]-NH2 (XGGFTXARKXXRKLX; N-benzyl, cyclic lactams, C-amide) [SEQ ID NO:14]
antagonist activity ([7]; up to 3 μM): abolished antagonist activity
